From US20250352512A2, “C4-S[…] DERIVATIVES AND METHODS OF USING” (priority 2022, published 2025)
Read-outs that look alike come from different tables or passages of the source.

Tests used:
5-HT1A receptor = molecular target: T1, 5-HT1A receptor (Homo sapiens, UniProt P08908); format: cell-based; conditions: for 5-HT1A receptor modulation: comparison of +5-HT1A with -5-HT1A cultures, 4 mM forskolin
T1 construct: host or cells: CHO-K1
T1 sequence (P08908 1-422): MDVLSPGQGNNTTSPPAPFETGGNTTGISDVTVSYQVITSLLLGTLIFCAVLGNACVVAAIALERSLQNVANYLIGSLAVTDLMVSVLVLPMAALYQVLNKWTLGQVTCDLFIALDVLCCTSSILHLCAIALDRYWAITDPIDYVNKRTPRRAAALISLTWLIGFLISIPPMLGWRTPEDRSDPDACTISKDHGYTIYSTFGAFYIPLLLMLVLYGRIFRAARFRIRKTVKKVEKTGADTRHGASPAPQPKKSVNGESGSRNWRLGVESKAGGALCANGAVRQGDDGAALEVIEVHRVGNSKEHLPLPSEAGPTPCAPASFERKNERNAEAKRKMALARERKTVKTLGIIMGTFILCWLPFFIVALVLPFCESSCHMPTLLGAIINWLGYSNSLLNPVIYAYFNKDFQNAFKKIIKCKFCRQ

[1] = molecular target: T2, 5-HT2A receptor (5-HT2AR) (Mus musculus, UniProt P35363); assay: Drug-induced Head Twitch Response (HTR) in mice; format: in vivo; conditions: C57BL/6-Elite mice, i.p. 1 mg/kg, 15-to-30-minute window following administration
T2 construct: tissue Charles River; host or cells: living C57BL/6-Elite mice (neuronal receptor)

5-HT2A receptor = 5-HT2A receptor (Homo sapiens, UniProt P28223); assay: [3H]ketanserin radioligand competition binding assay (SPA); conditions: fixed (1 nM) [3H]ketanserin, membranes containing 5-HT2A
[2] = Stability assay in enzyme-free control buffer; format: in vitro ADME; conditions: enzyme-free buffer pH 7.4, 37° C., 2 hours
Source text: (§1) A fundamental evaluation in drug development is the assessment of absorption, distribution, metabolism, excretion, and pharmacokinetics (ADME/PK) (Eddershaw et al., 2000, Drug Discovery Today 5(9): 409-414). […] Drug stability upon exposure to human liver microsomes and liver S9 cellular fractions is a common in vitro assay to approximate in vivo, liver-based drug metabolism (Richardson et al., 2016 Drug Metabolism Letters 10:83-90). First-pass metabolism is also often approximated in vitro using intestinal microsome and cellular S9 fractions (Hatley et al., 2017, Biopharmaceuticals & Drug Disposition, 38(2):155-160). […] Supernatants were analyzed for the presence of candidate prodrugs (parent molecule) and psilocin (the predicted metabolite) using Orbitrap LC-MS (Thermo Scientific) using previously described methods (Menendez-Perdomo et al., 2021, J. Mass Spectrom., 56: e4683). […] Assay concentrations (μM) of both parent ‘prodrug’ molecule and psilocin metabolite, as quantified through LC-MS using routine standard curve procedures, were plotted as functions of assay time (minutes). The metabolism rate (TI/2) was determined from the metabolism curve plot using the one phase decay feature of GraphPad PRISM software (Version 9.2.0). The quantity of parent prodrug at time zero was set as 100%. […]

[3] = Metabolic stability / psilocin release in human AB serum; format: in vitro ADME; conditions: 10% human AB serum
Source text: as §1

[4] = Metabolic stability / psilocin release in human liver microsomes; format: in vitro ADME; conditions: 2.5 μM, 400 μg/ml HLM, NADPH, 37° C.
Source text: as §1

[5] = Metabolic stability / psilocin release in human liver S9 fractions; format: in vitro ADME; conditions: 2.5 μM, 400 μg/ml HLS9, NADPH, 37° C.
Source text: as §1

[6] = +5-HT1A cells stimulated with 4 mM forskolin

T2 sequence (P35363 whole entry): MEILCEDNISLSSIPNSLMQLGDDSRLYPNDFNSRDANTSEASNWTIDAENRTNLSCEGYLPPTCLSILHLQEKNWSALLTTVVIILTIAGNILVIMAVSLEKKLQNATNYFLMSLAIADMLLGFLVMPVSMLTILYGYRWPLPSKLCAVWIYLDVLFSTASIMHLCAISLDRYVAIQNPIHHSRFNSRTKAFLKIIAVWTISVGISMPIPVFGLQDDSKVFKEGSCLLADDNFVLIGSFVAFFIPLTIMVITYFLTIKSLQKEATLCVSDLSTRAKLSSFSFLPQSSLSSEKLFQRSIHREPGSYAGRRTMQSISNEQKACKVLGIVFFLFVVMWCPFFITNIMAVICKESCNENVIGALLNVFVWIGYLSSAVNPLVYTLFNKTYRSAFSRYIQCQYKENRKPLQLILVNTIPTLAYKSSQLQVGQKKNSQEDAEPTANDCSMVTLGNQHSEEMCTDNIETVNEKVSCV
5-HT2A receptor, sequence (P28223 whole entry): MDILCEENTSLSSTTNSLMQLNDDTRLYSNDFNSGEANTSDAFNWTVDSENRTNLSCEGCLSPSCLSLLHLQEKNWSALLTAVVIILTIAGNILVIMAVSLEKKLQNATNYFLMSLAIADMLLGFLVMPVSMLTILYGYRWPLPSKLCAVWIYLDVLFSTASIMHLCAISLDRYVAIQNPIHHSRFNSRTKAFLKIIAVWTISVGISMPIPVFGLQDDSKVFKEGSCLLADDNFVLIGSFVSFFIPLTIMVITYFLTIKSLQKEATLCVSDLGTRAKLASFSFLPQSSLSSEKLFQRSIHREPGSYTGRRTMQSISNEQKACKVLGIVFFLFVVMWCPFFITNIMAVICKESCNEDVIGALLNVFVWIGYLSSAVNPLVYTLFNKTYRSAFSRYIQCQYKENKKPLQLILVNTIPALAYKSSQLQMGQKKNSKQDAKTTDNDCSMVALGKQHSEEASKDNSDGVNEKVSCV

| SMILES | 5-HT1A receptor modulation (5-HT1A receptor) | incidences of Head Twitch Response (HTR) relative to vehicle [1] | also measured |
| --- | --- | --- | --- |
| CN(C)CCc1c[nH]c2cccc(O[Si](c3ccccc3)(c3ccccc3)C(C)(C)C)c12 [A(III)] | suggests receptor modulation at higher ligand concentrations | Elevated incidences of HTR |  |
| CN(C)CCc1c[nH]c2cccc(OC(=O)OCC(Cl)(Cl)Cl)c12 [B(IV)] | suggests no receptor modulation | Elevated incidences of HTR |  |
| CCCCCCOC(=O)Oc1cccc2[nH]cc(CCN(C)C)c12 [B(V)] | suggests no receptor modulation |  |  |
| CCC(=O)OCOc1cccc2c1c(CCN(C)C)cn2C(=O)CC [D(XIX)] | suggests significant receptor modulation | Elevated incidences of HTR |  |
| CN(C)CCc1c[nH]c2cccc(OP3(=O)OCC(C)(C)CO3)c12 [F(II)] | reveals receptor modulation | Elevated incidences of HTR |  |
| CN(C)CCc1c[nH]c2cccc(O)c12 [psilocin, reference compound] |  |  | cAMP levels with increasing doses of ligand (5-HT1A receptor; [6]): reduction in cAMP levels; competition binding at the 5-HT2A receptor (5-HT2A receptor): binding |
| CN(C)CCc1c[nH]c2cccc(OP(=O)(O)O)c12 [psilocybin] |  |  | stability in assay buffer [2]: stability of psilocybin was confirmed in assay buffer; stability and conversion to psilocin in serum [3]: stable in serum with no conversion to psilocin; stability and conversion to psilocin in liver fractions (HLM) [4]: stable in liver fractions with no conversion to psilocin; stability and conversion to psilocin in liver fractions (HLS9) [5]: stable in liver fractions with no conversion to psilocin |
| NCCc1c[nH]c2ccc(O)cc12 [serotonin, reference compound] |  |  | cAMP levels with increasing doses of ligand (5-HT1A receptor): reduction in cAMP levels |
| N[C@@H](Cc1c[nH]c2ccccc12)C(=O)O [tryptophan, reference compound] |  |  | cAMP levels with increasing doses of ligand (5-HT1A receptor; [6]): no reduction in cellular cAMP levels; competition binding at the 5-HT2A receptor (5-HT2A receptor): no binding |
